Laboratory results: PubChem BioAssay AID330 (DTP/NCI, 2004)
“And” between values parts separate entries of the source, which are not always exact repeats. Identical values can stand only once. Inconclusive results and toxic doses are left out.

System: P388 leukemia ip, CD2F1 mice, survival T/C
Experiment: NCI In Vivo Anticancer Drug Screen. Data for tumor model P388 Leukemia (intraperitoneal) in CD2F1 (CDF1) mice
Conditions: endpoint: median survival time, higher = longer survival
Summary of the method: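 Mice carrying the transplanted tumor received test compound or vehicle. Survival was recorded in each group, and the value is the treated-group measurement divided by that of the vehicle-treated control group.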

[1] = dose: 25.0 mg/kg/injection, schedule: Q01DX009 (ip), vehicle: saline with Tween-80
[2] = dose: 50.0 mg/kg/injection, schedule: Q01DX009 (ip), vehicle: saline with Tween-80
[3] = dose: 100.0 mg/kg/injection, schedule: Q01DX009 (ip), vehicle: saline with Tween-80
[4] = dose: 200.0 mg/kg/injection, schedule: Q01DX009 (ip), vehicle: saline with Tween-80
[5] = dose: 6.25 mg/kg/injection, schedule: Q01DX009 (ip), vehicle: saline with Tween-80
[6] = dose: 12.5 mg/kg/injection, schedule: Q01DX009 (ip), vehicle: saline with Tween-80
[7] = dose: 50.0 mg/kg/injection, schedule: Q01DX005 (ip), vehicle: Klucel (hydroxypropylcellulose) (HPC)
[8] = dose: 100.0 mg/kg/injection, schedule: Q01DX005 (ip), vehicle: Klucel (hydroxypropylcellulose) (HPC)
[9] = dose: 200.0 mg/kg/injection, schedule: Q01DX005 (ip), vehicle: Klucel (hydroxypropylcellulose) (HPC)
[10] = dose: 50.0 mg/kg/injection, schedule: Q01DX005 (ip), vehicle: saline with Tween-80
[11] = dose: 100.0 mg/kg/injection, schedule: Q01DX005 (ip), vehicle: saline with Tween-80
[12] = dose: 200.0 mg/kg/injection, schedule: Q01DX005 (ip), vehicle: saline with Tween-80
[13] = dose: 50.0 mg/kg/injection, schedule: Q01DX009 (ip), vehicle: Klucel (hydroxypropylcellulose) (HPC)
[14] = dose: 100.0 mg/kg/injection, schedule: Q01DX009 (ip), vehicle: Klucel (hydroxypropylcellulose) (HPC)
[15] = dose: 200.0 mg/kg/injection, schedule: Q01DX009 (ip), vehicle: Klucel (hydroxypropylcellulose) (HPC)
[16] = dose: 60.0 mg/kg/injection, schedule: Q01DX005 (ip), vehicle: Klucel (hydroxypropylcellulose) (HPC)
[17] = dose: 120.0 mg/kg/injection, schedule: Q01DX005 (ip), vehicle: Klucel (hydroxypropylcellulose) (HPC)

Cc1ccc(C(=O)/C=C/c2ccccc2)cc1
T/C (dose: 12.5 mg/kg/injection, schedule: Q01DX009 (ip), vehicle: water): 94 % of control
T/C [1]: 92 % of control
T/C (dose: 25.0 mg/kg/injection, schedule: Q01DX009 (ip), vehicle: water): 95 % of control
T/C [2]: 108 % of control
T/C (dose: 50.0 mg/kg/injection, schedule: Q01DX009 (ip), vehicle: water): 99 % of control
T/C [3]: 102 % of control
T/C (dose: 100.0 mg/kg/injection, schedule: Q01DX009 (ip), vehicle: water): 104 % of control
T/C [4]: 109 % of control
T/C (dose: 200.0 mg/kg/injection, schedule: Q01DX009 (ip), vehicle: water): 96 % of control

O=C(N=Nc1c(Cl)c(O)c2ccccc2c1O)c1ccccc1O
T/C [5]: 100 % of control
T/C [6]: 108 % of control
T/C [1]: 106 % of control
T/C [2]: 104 % of control and 115 % of control

Cc1ccc(N/N=C/C(=O)O)cc1
T/C (dose: 12.5 mg/kg/injection, schedule: Q01DX009 (ip), vehicle: other): 113 % of control
T/C (dose: 25.0 mg/kg/injection, schedule: Q01DX009 (ip), vehicle: other): 103 % of control
T/C (dose: 50.0 mg/kg/injection, schedule: Q01DX009 (ip), vehicle: other): 112 % of control
T/C (dose: 100.0 mg/kg/injection, schedule: Q01DX009 (ip), vehicle: other): 98 % of control
T/C (dose: 200.0 mg/kg/injection, schedule: Q01DX009 (ip), vehicle: other): 116 % of control
T/C (dose: 400.0 mg/kg/injection, schedule: Q01DX009 (ip), vehicle: other): 116 % of control

O=C(O)c1cccc(SS(=O)(=O)c2cccc(C(=O)O)c2)c1
T/C [7]: 109 % of control
T/C [8]: 112 % of control
T/C [9]: 107 % of control

NCCCCC(NC(=O)c1ccccc1)C(=O)O (stereo unspecified)
T/C [2]: 98 % of control
T/C [3]: 100 % of control
T/C [4]: 104 % of control

CCCCNc1ccc(Nc2ccccc2)cc1
T/C [5]: 95 % of control
T/C [6]: 108 % of control
T/C [1]: 115 % of control
T/C [2]: 121 % of control

CCc1nc(N)nc(N)c1-c1ccc([N+](C)(C)C)cc1
T/C (dose: 6.25 mg/kg/injection, schedule: Q01DX005 (ip), vehicle: Klucel (hydroxypropylcellulose) (HPC)): 101 % of control
T/C (dose: 12.5 mg/kg/injection, schedule: Q01DX005 (ip), vehicle: Klucel (hydroxypropylcellulose) (HPC)): 101 % of control
T/C (dose: 25.0 mg/kg/injection, schedule: Q01DX005 (ip), vehicle: Klucel (hydroxypropylcellulose) (HPC)): 103 % of control

CNC(=O)O/N=C(\CN=[N+]=[N-])C(C)(C)C
T/C (dose: 0.78 mg/kg/injection, schedule: Q01DX009 (ip), vehicle: saline with Tween-80): 93 % of control

CCCCCC(=O)C(C)(c1nc2nnc(NC(=O)Nc3ccc(Cl)cc3)n2[nH]c1=O)c1nc2nnc(NC(=O)Nc3ccc(Cl)cc3)n2[nH]c1=O
T/C (dose: 60.0 mg/kg/injection, schedule: Q01DX005 (ip), vehicle: saline with Tween-80): 103 % of control
T/C (dose: 120.0 mg/kg/injection, schedule: Q01DX005 (ip), vehicle: saline with Tween-80): 98 % of control
T/C (dose: 240.0 mg/kg/injection, schedule: Q01DX005 (ip), vehicle: saline with Tween-80): 97 % of control

C/C(N=NC(=S)N1CCCCC1)=C1\C=CC=CN1O
T/C [10]: 106 % of control
T/C [11]: 98 % of control
T/C [12]: 105 % of control

CSc1nc2ncnc(N)c2[nH]1
T/C [10]: 93 % of control
T/C [11]: 96 % of control
T/C [12]: 108 % of control

COc1cc2nc(C)[nH]c(=O)c2cc1OC
T/C [7]: 109 % of control
T/C [8]: 90 % of control
T/C [9]: 99 % of control

Nc1nc(N)c2nc(CNc3ccc(C(=O)NC(CC(=O)O)C(=O)O)cc3)cnc2n1 (stereo unspecified)
T/C [6]: 150 % of control
T/C [2]: 95 % of control
T/C (dose: 66.0 mg/kg/injection, schedule: Q04DX003 (ip), vehicle: saline with Tween-80): 112 % of control
T/C (dose: 200.0 mg/kg/injection, schedule: Q04DX003 (ip), vehicle: saline with Tween-80): 90 % of control

Cc1cc(OC(=O)N(C)C)nc(SCC(=O)c2ccc(Cl)cc2)n1
T/C [13]: 99 % of control
T/C [14]: 103 % of control
T/C [15]: 107 % of control

CC1CCCN(c2cc3nc[nH]c(=O)c3cc2[N+](=O)[O-])C1 (stereo unspecified)
T/C (dose: 100.0 mg/kg/injection, schedule: Q04DX003 (ip), vehicle: Klucel (hydroxypropylcellulose) (HPC)): 103 % of control
T/C (dose: 200.0 mg/kg/injection, schedule: Q04DX003 (ip), vehicle: Klucel (hydroxypropylcellulose) (HPC)): 100 % of control
T/C (dose: 400.0 mg/kg/injection, schedule: Q04DX003 (ip), vehicle: Klucel (hydroxypropylcellulose) (HPC)): 99 % of control

CCOC(=O)C1=C(C(=O)C(C)(C)C)C(c2ccc([N+](=O)[O-])cc2)C(C(=O)C(C)(C)C)=C(C(=O)OCC)N1
T/C [16]: 103 % of control
T/C [17]: 94 % of control
T/C (dose: 240.0 mg/kg/injection, schedule: Q01DX005 (ip), vehicle: Klucel (hydroxypropylcellulose) (HPC)): 103 % of control

Clc1ccc(C(c2ccccc2)N2CCNCC2)cc1 (stereo unspecified)
T/C (dose: 25.0 mg/kg/injection, schedule: Q04DX003 (ip), vehicle: saline with Tween-80): 99 % of control
T/C (dose: 50.0 mg/kg/injection, schedule: Q04DX003 (ip), vehicle: saline with Tween-80): 113 % of control
T/C (dose: 100.0 mg/kg/injection, schedule: Q04DX003 (ip), vehicle: saline with Tween-80): 102 % of control

c1ncc2n[pH]nc2n1 (stereo unspecified)
T/C (dose: 60.0 mg/kg/injection, schedule: Q01DX005 (ip), vehicle: saline): 95 % of control
T/C (dose: 120.0 mg/kg/injection, schedule: Q01DX005 (ip), vehicle: saline): 101 % of control
T/C (dose: 240.0 mg/kg/injection, schedule: Q01DX005 (ip), vehicle: saline): 96 % of control

COC(=O)C1=NNC(C(=O)OC)=C(c2ccccc2)C(c2ccccc2)=N1
T/C (dose: 25.0 mg/kg/injection, schedule: Q01DX009 (ip), vehicle: Klucel (hydroxypropylcellulose) (HPC)): 89 % of control
T/C [13]: 90 % of control
T/C [14]: 93 % of control
T/C [15]: 98 % of control
T/C (dose: 400.0 mg/kg/injection, schedule: Q01DX009 (ip), vehicle: Klucel (hydroxypropylcellulose) (HPC)): 106 % of control

CC(=O)Oc1c(C)c(OC(C)=O)c2c(c1C(C)=O)OC1CC(=O)C(C(C)=O)=C(O)C21C (stereo unspecified)
T/C (dose: 6.25 mg/kg/injection, schedule: Q01DX009 (ip), vehicle: gum acacia): 101 % of control and 97 % of control
T/C (dose: 12.5 mg/kg/injection, schedule: Q01DX009 (ip), vehicle: gum acacia): 100 % of control and 102 % of control
T/C (dose: 25.0 mg/kg/injection, schedule: Q01DX009 (ip), vehicle: gum acacia): 102 % of control
T/C (dose: 50.0 mg/kg/injection, schedule: Q01DX009 (ip), vehicle: gum acacia): 101 % of control and 104 % of control
T/C (dose: 100.0 mg/kg/injection, schedule: Q01DX009 (ip), vehicle: gum acacia): 94 % of control

Clc1ccc(N=Cc2ccc(C=Nc3ccc(Cl)cn3)cc2)nc1
T/C [13]: 91 % of control
T/C [14]: 94 % of control
T/C [15]: 93 % of control

Cc1cc(NCCCCCCNc2cc(C)nc3cc(N(C)C)ccc23)c2ccc(N(C)C)cc2n1
T/C (dose: 1.56 mg/kg/injection, schedule: Q01DX009 (ip), vehicle: distilled water + Tween-80 + alcohol): 110 % of control
T/C (dose: 6.25 mg/kg/injection, schedule: Q01DX009 (ip), vehicle: distilled water + Tween-80 + alcohol): 151 % of control
T/C (dose: 12.5 mg/kg/injection, schedule: Q01DX009 (ip), vehicle: distilled water + Tween-80 + alcohol): 154 % of control and 158 % of control
T/C (dose: 25.0 mg/kg/injection, schedule: Q01DX009 (ip), vehicle: distilled water + Tween-80 + alcohol): 178 % of control and 181 % of control

O=[N+]([O-])c1cc([N+](=O)[O-])c(Cl)s1
T/C [5]: 104 % of control
T/C [6]: 100 % of control

CCC1(N(C)C)C(=O)NC(=O)N(C)C1=O (stereo unspecified)
T/C [16]: 103 % of control
T/C [17]: 101 % of control
T/C (dose: 2400.0 mg/kg/injection, schedule: Q01DX005 (ip), vehicle: Klucel (hydroxypropylcellulose) (HPC)): 104 % of control
